Measured values taken from patent US12571801B2, “Tandem activity-based sensing and labeling strategy for reactive oxygen species imaging” (The Regents of the University of California, priority 2021, dated 2026).

How the values were obtained:
RAW 264.7 macrophages = test: Imaging and flow cytometry of endogenous H2O2 in PMA-stimulated RAW264.7 macrophages; assay type: cell-based, mouse; conditions: for probe fluorescence in PMA-treated RAW 264.7 cells vs control: probe 10 μM, PMA 1 μg/mL 60 min, confocal microscopy and flow cytometry
Method: (A) Confocal microscopy (top row) and overlaid brightfield (bottom row) images of RAW264.7 macrophages stained with PG1-FM (10 μM) and then treated with PMA (1 μg/mL) or vehicle control for 60 min, washed and imaged, or first pre-treated with NADPH oxidase inhibitor DPI (5 μM) or antioxidant ebselen (5 μM) for 30 min in HBSS solution before PG1-FM staining and PMA stimulation. (B) Flow cytometry histograms and (C) quantification of mean value fluorescence intensity using PG1-FM under same conditions as (A). (D) Confocal microscopic images of RAW264.7 macrophages stained with PR1-FM (10 μM) under same conditions as (A). **P<0.01.
We next tested the ability of PG1-FM and PR1-FM to monitor H2O2 production in RAW 264.7 macrophages.
RAW264.7 cells were plated on a μ-slide 8 well (ibidi) and cultured at 37° C. overnight in a 5% CO2 incubator. The cells were pretreated with inhibitors, DPI (5 μM) or Ebselen (10 μM), for 30 min in HBSS. Afterward, the cells were co-incubated with PG1-FM (10 μM) and PMA (1 μg/mL) with or without DPI or Ebselen. The cells were observed on confocal microscope after washing with HBSS twice.
RAW264.7 cells were plated on a 6 well plate and cultured at 37° C. overnight in a 5% CO2 incubator. The cells were pretreated with inhibitors, DPI (5 μM) or Ebselen (10 μM), for 30 min in HBSS. Afterward, the cells were co-incubated with PG1-FM (5 μM) and PMA (1 μg/mL) with or without DPI or Ebselen. The cells were harvested by 0.05% Trypsin with EDTA, filtered, and analyzed with flow cytometer.

A431 cells = test: Imaging of endogenous H2O2 in EGF-stimulated A431 cells; assay type: cell-based
Method: (A) Confocal microscopy (top row) and overlaid brightfield (bottom row) images of A431 cells stained with PG1-FM (10 μM) and then treated with EGF (1 μg/mL) or vehicle control for 30 min, washed and imaged, or first pre-treated with NADPH oxidase inhibitor DPI (5 μM) or antioxidant ebselen (5 μM) for 30 min in HBSS solution before PG1-FM staining and EGF stimulation. (B) Quantification of experiments.

zebrafish = test: In vivo live imaging of endogenous H2O2 in zebrafish, tail fin cut model
Method: FIG. 6. Confocal microscopic images of zebrafish labeled with PR1-FM. Zebrafish embryos in E3 medium containing P1-FM (5 μM) were incubated overnight. The fishes were additionally incubated for 1 hour with containing DPI (100 nM) before the tail fin cut.
We sought to apply PR1-FM for in vivo live imaging to detect endogenous hydrogen peroxide production. PR1-FM was tested with live zebrafish in the regenerated fin model. The larvae at two days post-fertilization (dpf) was pre-stained with PR1-FM (5 μM) overnight before tail fin cut. […] Taken together, PR1-FM can be useful for detecting hydrogen peroxide in live zebrafish.

[1] = ROS selectivity analysis (fluorescence response to competing ROS/RNS); conditions: 1 μM probe; OCl−, TBHP, O2−, ONOO−, NO; PBS
Method: (§1) FIGS. 1A-I. Fluorescence responses and activity-based sensing and labeling properties of PG1-FM, MitoPY1-FM, and PR1-FM. (A, B, C) Activity-based sensing fluorescence responses of 1 μM PG1-FM (A), 1 μM MitoPY1-FM (B), and 1 μM PR1-FM (C) to 25 μM H2O2. Data were acquired in PBS (pH 7.4) at 37° C. (D, E, F) Fluorescence responses of 1 μM PG1-FM (D), 1 μM MitoPY1-FM (E), and 1 μM PR1-FM (F) towards biologically relevant competing reactive oxygen species and reactive nitrogen species. (G, H, I) H2O2-dependent activity-based labeling of PG1-FM (G), MitoPY1-FM (H), and PR1-FM (I) to BSA. A solution of BSA (0.5 mg/mL) and PG1-FM (1 μM), MitoPY1-FM (1 μM), and PR1-FM (1 μM) in PBS (pH 7.4) was incubated with or without H2O2(100 μM) and analyzed by SDS-PAGE gel.
FIG. 8. Fluorescence spectra of PG1-FM reacted with […] of OCl^−, TBHP, O2^−, ONOO^−, NO or PBS (control). PG1-FM (1 μM) was incubated with […] of H2O2, OCl^−, TBHP, O2^−, ONOO^−, or NO at 37° C. in PBS (−). The mixtures were measured by fluorometer at any incubating times (0, 5, 15, 30, 45, and 60 min).
(§2) PG1-FM was dissolved in DMSO to obtain a 1 mM stock solution. The fluorescence spectra of PG1-FM (1 μM) were measured in PBS (−) containing 25 μM of H2O2, OCl^−, TBHP, O2^−, ONOO^−, or NO OCl^−, O2^−, ONOO^−, or NO were generated by using NaOCl (Fluka), potassium superoxide (SIGMA), Peroxynitrite (Cayman), and PROLI NONOate (Cayman), respectively. The fluorescence spectra of PG1-FM were collected an emission window between 500 nm to 650 nm with excitation at 488 nm.

HeLa cells [2] = test: Confocal imaging of exogenous H2O2 in live HeLa cells; assay type: cell-based; conditions: 5 μM probe; for probe fluorescence in HeLa cells on exogenous H2O2 treatment: H2O2 (1 mM) 60 min vs vehicle, confocal
Method: FIGS. 2A-C. Exogenous H2O2 detection. Confocal microscopic images of HeLa cell stained with PG1-FM, PR1-FM, and MitoPY1-FM. (A, B) HeLa cells were pe-stained with PG1-FM (5 μM) or PR1-FM (5 μM) at 37° C. in a 5% CO2 incubator. After incubating for 30 min, the cells were washed with HBSS twice, and treated with H2O2 (1 mM) for 60 min. The cells were observed on confocal microscope after washing with HBSS twice. (C) HeLa cells were pe-stained with MitoPY1-FM (5 μM) at 37° C. in a 5% CO2 incubator. After incubating for 30 min, the cells were washed with HBSS twice, and treated with H2O2 (1 mM) for 60 min. The cells were observed on confocal microscope after staining with MitoBright LT Green for 30 mi. Scale bar: 50 μm.
We next assessed the ability of PG1-FM, MitoPY1-FM, and PR1-FM for visualizing changes in H2O2 levels in live cells with exogenous H2O2 treatment. HeLa cells were pre-stained with 5 μM of PG1-FM, MitoPY1-FM, or PR1-FM, treated with H2O2 (1 mM) or vehicle control, washed, and imaged. MitoPY1-FM stained HeLa cells were co-stained with MitoBright LT Green before imaging. […] We observed that the probes load evenly throughout the cell and responds to elevations in H2O2(FIGS. 2A, 2B, and 2C).
Cells were grown at the UC Berkeley Tissue Culture Facility. HeLa, RAW264.7, and A431 cells were cultured in DMEM (high glucose) supplemented with 10% (v/v) fetal bovine serum, GlutaMAX, and NEAA. All cells were maintained in a humidified 5% CO2 incubator at 37° C.

[3] = Fluorescence response of probes to H2O2 in buffer; conditions: 1 μM probe, 25 μM H2O2, PBS (pH 7.4), 37° C.
Method: as §1
(§3) We first evaluated the in vitro response of PG1-FM, MitoPY1-FM, and PR1-FM to hydrogen peroxide in aqueous solution buffered to physiological pH. […] PG1-FM converted to a fluorescent product that undergoes subsequent hydrolysis with H2O by LC analysis (FIG. 9A-B). […] To establish activity-based labeling of PG1-FM, MitoPY1-FM, and PR1-FM in a H2O2-dependent manner, we incubated the probes with bovine serum albumin (BSA) as a model protein substrate in the presence or absence of H2O2, and the reactions were analyzed by SDS-PAGE.
as §2

[4] = molecular target: bovine serum albumin (BSA) (Bos taurus, UniProt P02769); test: H2O2-dependent activity-based labeling of BSA, SDS-PAGE; assay type: biochemical; conditions: BSA 0.5 mg/mL, with or without H2O2 (100 μM)
bovine serum albumin (BSA), sequence (P02769 25-607): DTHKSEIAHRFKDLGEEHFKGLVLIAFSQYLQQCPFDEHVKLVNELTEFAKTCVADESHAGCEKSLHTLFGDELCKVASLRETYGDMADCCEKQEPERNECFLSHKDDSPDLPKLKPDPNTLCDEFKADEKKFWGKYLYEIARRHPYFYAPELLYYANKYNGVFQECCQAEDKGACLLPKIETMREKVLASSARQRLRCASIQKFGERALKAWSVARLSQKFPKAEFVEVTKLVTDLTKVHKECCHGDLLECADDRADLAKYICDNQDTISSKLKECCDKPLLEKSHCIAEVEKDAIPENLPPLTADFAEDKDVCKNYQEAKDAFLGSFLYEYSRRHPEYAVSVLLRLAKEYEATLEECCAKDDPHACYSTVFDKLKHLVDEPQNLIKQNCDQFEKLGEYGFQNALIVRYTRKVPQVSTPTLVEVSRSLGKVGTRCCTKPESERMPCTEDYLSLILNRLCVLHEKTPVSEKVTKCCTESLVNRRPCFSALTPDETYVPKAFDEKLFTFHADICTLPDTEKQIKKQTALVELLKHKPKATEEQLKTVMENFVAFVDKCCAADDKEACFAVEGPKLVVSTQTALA
Method: as §1, §3
PG1-FM (10 μM) and BSA (0.5 mg/mL) were incubated at 25° C. for 1 h with or without H2O2 (100 μM). Afterward, Ebselen (100 μM) was added to the mixture to quench excess of H2O2. The obtained samples were separated with Novex™ Mini Gel (Thermo). The gel was first analyzed by ChemiDoc™ MP (Bio-Rad) to take a fluorescence images, and stained with Coomassie brilliant blue (CBB) Solution

HeLa cells [5] = test: Imaging and flow cytometry of endogenous H2O2 in paraquat-treated HeLa cells; assay type: cell-based; conditions: paraquat 1 mg/mL 24 h; confocal microscopy, verified by flow cytometry
Method: FIGS. 3A-C. PG1-FM imaging of endogenous H2O2 generation in live HeLa cells under oxidative stress conditions stimulated by paraquat. (A) Confocal microscopy images of HeLa cells treated with or without paraquat (1 mg/mL) for 24 h, stained with PG1-FM (10 μM) for 1 h, washed twice with HBSS, and imaged. Scale bar: 50 μm. (B) Flow cytometry analysis of the cells treated with or without paraquat using PG1-FM using same conditions as (A). (C) Flow cytometric data quantified with mean value. **P<0.01.
We next utilized PG1-FM for imaging endogenous H2O2 fluxes produced by multiple types of cell models under various stimulation conditions. Our first set of experiments along these lines evaluated the performance of the probe under conditions of oxidative stress induced by paraquat treatment. HeLa cells were stimulated with or without paraquat (1 mg/mL) for 24 h to induce ROS and oxidative stress, followed by staining with PG1-FM for 30 min, washing, and imaging. […] Because the probe is cell-trappable, we verified the observed fluorescence enhancements using flow cytometry (FIG. 3B, 3C), highlighting its utility in this analytical method as well.

HeLa cells [6] = test: Imaging of mitochondrial H2O2 in HeLa cells treated with Antimycin or Rotenone; assay type: cell-based
Method: FIGS. 7A-B. Confocal microscopic images of HeLa cell stained with MitoPY1-FM. (A) HeLa cell was stained with MitoPY1-FM (5 μM) for 1 h. After washing the cell with non-FBS medium, the cell was treated with Antimycin (1 μM) or Rotenone (1 μM) for 24 h. The cells were observed on confocal microscope after washing the cell. (B) Confocal microscopic images of fixed HeLa cell stained with MitoPY1-FM and Tom 20 antibody. HeLa cells were stained with MitoPY1-FM and then exposed with antimycin A. The treated cells were fixed and stained with Tom 20 antibody before the observation.
We evaluated MitoPY1-FM for imaging mitochondrial H2O2 fluxes produced by inhibition of mitochondrial electron transporter chain. HeLa cells were pre-stained with MitoPY1-FM (5 μM) and stimulated by Antimycin (1 μM) or Rotenone (1 μM) for 24 h to induce ROS and oxidative stress.

SMILES	effect of inhibitor on PMA-induced probe fluorescence increase in RAW 264.7 cells (RAW 264.7 macrophages; inhibitor pre-treatment 30 min in HBSS)	effect of inhibitor on H2O2-induced PG1-FM fluorescence in EGF-stimulated A431 cells (A431 cells; inhibitor 5 μM pre-treatment 30 min)	effect of inhibitor on PR1-FM fluorescence in zebrafish after tail fin cut (zebrafish; DPI 100 nM, 1 hour before the tail fin cut)	selectivity of fluorescence response for H2O2 over other ROS and RNS [1]	probe fluorescence in PMA-treated RAW 264.7 cells vs control (RAW 264.7 macrophages)	probe fluorescence in HeLa cells on exogenous H2O2 treatment (HeLa cells [2])	probe fluorescence in zebrafish post-cut vs pre-cut of tail fin (zebrafish; larvae 2 dpf, PR1-FM 5 μM overnight)	fluorescence response after treatment with H2O2 [3]	H2O2-dependent fluorescent labeling of BSA [4]	probe fluorescence in EGF-stimulated A431 cells vs control (A431 cells; PG1-FM 10 μM, EGF 1 μg/mL 30 min, confocal)	probe fluorescence in paraquat-exposed vs untreated HeLa cells (HeLa cells [5])	localisation by co-staining with MitoBright LT Green (HeLa cells [2]; HeLa cells, H2O2 (1 mM))	probe fluorescence in mitochondria of HeLa cells exposed to electron transport chain inhibitors vs untreated (HeLa cells [6]; MitoPY1-FM 5 μM, Antimycin (1 μM) or Rotenone (1 μM) 24 h)	localisation of probe fluorescence in fixed HeLa cells co-stained with Tom20 antibody (HeLa cells [6]; antimycin A exposed, fixed cells)
c1ccc2c(c1)[I+]c1ccccc1-2 [DPI, diphenyleneiodonium, reference compound]	fluorescence increases are blocked	inhibited H2O2-induced enhancements in PG1-FM fluorescence	lower level of fluorescence	–	–	–	–	–	–	–	–	–	–	–
CN(C)c1ccc2c(c1)[Si](C)(C)c1c(ccc(B3OC(C)(C)C(C)(C)O3)c1CF)C21OC(=O)c2ccccc21 (stereo not shown) [PR1-FM, Peroxy Red-1 Fluoromethyl]	–	–	–	highly selective response for H2O2	higher PG1-FM and PR1-FM fluorescence relative to control cells	fluorescence increase in the whole cells	patently higher fluorescence signals in post-cut condition	clear fluorescence enhancement	fluorescent BSA-associated band was observed only under conditions with H2O2	–	–	–	–	–
COc1ccc2c(c1)Oc1c(ccc(B3OC(C)(C)C(C)(C)O3)c1CF)C21OC(=O)c2ccccc21 (stereo not shown) [PG1-FM, Peroxy Green-1 Fluoromethyl]	–	–	–	highly selective response for H2O2	higher PG1-FM and PR1-FM fluorescence relative to control cells	fluorescence increase in the whole cells	–	clear fluorescence enhancement	fluorescent BSA-associated band was observed only under conditions with H2O2	clear increase in fluorescence	patent H2O2-dependent fluorescence increases	–	–	–
CC1(C)OB(c2ccc3c(c2CF)Oc2cc(N4CCN(C(=O)CCC[P+](c5ccccc5)(c5ccccc5)c5ccccc5)CC4)ccc2C32OC(=O)c3ccccc32)OC1(C)C.[Br-] (stereo not shown) [MitoPY1-FM, MitoPY1 Fluoromethyl]	–	–	–	highly selective response for H2O2	–	–	–	clear fluorescence enhancement	fluorescent BSA-associated band was observed only under conditions with H2O2	–	–	overlapped with MitoBright LT	patent H2O2-dependent fluorescence increases	enhanced on mitochondria
